IC50 data for 18 molecules are collected here from patent US20240262842A1, “SMALL MOLECULE INHIBITORS OF KRAS G12C MUTANT” (Merck Sharp & Dohme LLC, priority 2021, published 2024).

Read-outs that look alike come from different tables or passages of the source.

Assay [1] deals with biotinylated KRAS G12C protein (GMP-PNP loaded) and GST-tagged Ras binding domain of c-RAF (Homo sapiens, UniProt P01116, C118S/C51S/C80L/G12C). The experiment in a line: RAS:RAF-RBD binding assay (TR-FRET). Particulars: 30-minute incubation of compound with KRAS G12C before RAF-RBD; Table 4; read-out: IC50. On the technique in general: In TR-FRET formats the signal depends on donor and acceptor labels being close together.

The next assay deals with MIA PaCa-2 cells. The experiment in a line: Growth inhibition activity on KRAS-G12C mutant cell line (CellTiter-Glo 3D). It counts as cell-based, human. The settings on record: MIA PaCa-2, 3-day culture with compound. In outline: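 MIA PaCa-2 cells in RPMI1640 with 10% FBS, U-bottom wells, cultured 1 day before compound (0.2% DMSO final), then 3 days at 37 °C, 5% CO2. Viability by CellTiter-Glo 3D luminescence; growth inhibition versus untreated wells gives IC50 (nM).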

In assay [2] the target is T1, interaction between GMPPNP-bound recombinant K-Ras4B G12C mutant protein and cRAF RAS-binding domain (cRAF-RBD) (Homo sapiens, UniProt P01116, G12C).
T1 construct: His-tag (N)
The experiment in a line: Inhibitory activity on interaction between KRAS G12C and cRAF (Alpha technology). The settings on record: GMPPNP-bound KRAS G12C incubated with compound 25° C. 1 hour, read-out: IC50. In outline:
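His-tagged K-Ras4B G12C (aa 1-169), GMPPNP-loaded, preincubated with compound 1 h at 25° C in pH 7.5 Tris buffer with MgCl2, TCEP, Tween 20. cRAF-RBD (aa 50-132) and Alpha reagents then added for 1.5 h; Alpha signal normalised to DMSO (0%) and GDP-bound KRAS (100%); IC50 from dose titration.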

[3] abbreviates: Homo sapiens, MIA PaCa-2, 72 h, Table 3-1.

As to `Cc1nc2c3c(c(C(F)(F)F)cc2n1C)-c1cccn2c(C(=O)c4cc(F)c(NC(=O)/C(F)=C/CN[C@@H]5CCOC5)c(F)c4)cc(c12)CCO3` (atropisomer, axis not shown) [Example 252, (R,Z)-N-(4-(9,10-dimethyl-7-(trifluoromethyl)-13,14-dihydro-9H-imidazo[4″,5″:5′,6′]benzo[1′,2′:2,3]oxocino[4,5,6-hi]indolizine-2-carbonyl)-2,6-difluorophenyl)-2-fluoro-4-((tetrahydrofuran-3-yl)amino)but-2-enamide], the IC50 (in general, the point on the concentration scale where inhibition reaches its midpoint) in assay [1] stood at 25.7 nM. Still for that read-out and setting: as for `COCc1nc2c3c(c(OC)cc2n1C)-c1cccn2c(C(=O)c4cc(F)c(NC(=O)/C=C/CNCC5(F)CC5)c(F)c4)cc(c12)CCN3C` (atropisomer, axis not shown) [Example 287, (E)-N-(2,6-difluoro-4-(7-methoxy-10-(methoxymethyl)-9,12-dimethyl-9,12,13,14-tetrahydroimidazo[4″,5″:5′,6′]benzo[1′,2′:2,3]azocino[4,5,6-hi]indolizine-2-carbonyl)phenyl)-4-(((1-fluorocyclopropyl)methyl)amino)but-2-enamide], the figure is 16.6 nM; as for `COCc1nc2c3c(c(OC)cc2n1C)-c1cccn2c(C(=O)c4cc(F)c(NC(=O)/C=C/[C@@H]5C[C@@H](F)CN5)c(F)c4)cc(c12)CCN3C` (atropisomer, axis not shown) [Example 293, (E)-N-(2,6-difluoro-4-(7-methoxy-10-(methoxymethyl)-9,12-dimethyl-9,12,13,14-tetrahydroimidazo[4″,5″:5′,6′]benzo[1′,2′:2,3]azocino[4,5,6-hi]indolizine-2-carbonyl)phenyl)-3-((2S,4R)-4-fluoropyrrolidin-2-yl)acrylamide], 16 nM.

Turning to `Cc1nc2c3c(c(C(F)(F)F)cc2n1C)-c1cccn2c(C(=O)c4cc(F)c(NC(=O)/C(F)=C/CNC5(C)CCOCC5)c(F)c4)cc(c12)CCO3` (atropisomer, axis not shown) [Example 296, (Z)-N-(4-(9,10-dimethyl-7-(trifluoromethyl)-13,14-dihydro-9H-imidazo[4″,5″:5′,6′]benzo[1′,2′:2,3]oxocino[4,5,6-hi]indolizine-2-carbonyl)-2,6-difluorophenyl)-2-fluoro-4-((4-methyltetrahydro-2H-pyran-4-yl)amino)but-2-enamide], the IC50 in assay [1] was 14.8 nM. For `Cc1nc2c3c(c(C(F)(F)F)cc2n1C)-c1cccn2c(C(=O)c4cc(F)c(NC(=O)/C=C/C5CCCN5)c(F)c4)cc(c12)CCO3` (single isomer, unassigned) [Example 250, (E)-N-(4-(9,10-dimethyl-7-(trifluoromethyl)-13,14-dihydro-9H-imidazo-[4″,5″:5′,6′]benzo[1′,2′: 2,3]oxocino[4,5,6-hi]-dolizine-2-carbonyl)-2,6-difluorophenyl)-3-(pyrrol-idin-2-yl)acrylamide], the IC50 in assay [1] was determined as 54.9 nM. As to `Cc1nc2c3c(c(C(F)(F)F)cc2n1C)-c1cccn2c(C(=O)c4cc(F)c(NC(=O)/C=C/C5CCCN5)c(F)c4)cc(c12)CCO3` (single isomer, unassigned) [Example 251, (E)-N-(4-(9,10-dimethyl-7-(trifluoromethyl)-13,14-dihydro-9H-imidazo-[4″,5″:5′,6′]benzo[1′,2′: 2,3]oxocino[4,5,6-hi]-indolizine-2-carbonyl)-2,6-difluorophenyl)-3-(pyrrolidin-2-yl)acryl-amide], the IC50 in assay [1] was found to be 16.7 nM. In the case of `Cc1nc2c3c(c(C(F)(F)F)cc2n1C)-c1cccn2c(C(=O)c4cc(F)c(NC(=O)/C=C/CN5CCC[C@@]5(C)C(C)O)c(F)c4)cc(c12)CCO3` (single isomer, unassigned) [Example 258], the IC50 in assay [1] is 6.69 nM.

Regarding `Cc1nc2c3c(c(C(F)(F)F)cc2n1C)-c1cccn2c(C(=O)c4cc(F)c(NC(=O)/C=C/CN5CCC[C@@]5(C)C(C)O)c(F)c4)cc(c12)CCO3` (single isomer, unassigned) [Example 259], the IC50 in assay [1] is 14.2 nM. On to `Cc1nc2c3c(c(C(F)(F)F)cc2n1C)-c1cccn2c(C(=O)c4cc(F)c(NC(=O)/C=C/CNC5CCOC5)c(F)c4)cc(c12)CCO3` (single isomer, unassigned) [Example 269, (E)-N-(4-(9,10-dimethyl-7-(trifluoromethyl)-13,14-dihydro-9H-imidazo-[4″,5″:5′,6′]benzo[1′,2′: 2,3]oxocino[4,5,6-hi]-indolizine-2-carbonyl)-2,6-difluorophenyl)-4-((tetrahydrofuran-3-yl)-amino)but-2-enamide], for which the IC50 in assay [1] amounted to 9.82 nM. `Cc1nc2c3c(c(C(F)(F)F)cc2n1C)-c1cccn2c(C(=O)c4cc(F)c(NC(=O)/C=C/CNC5CCOC5)c(F)c4)cc(c12)CCO3` (single isomer, unassigned) [Example 270, (E)-N-(4-(9,10-dimethyl-7-(trifluoromethyl)-13,14-dihydro-9H-imidazo-[4″,5″:5′,6′]benzo[1′,2′: 2,3]oxocino[4,5,6-hi]-indolizine-2-carbonyl)-2,6-difluorophenyl)-4-((tetrahydrofuran-3-yl)-amino)but-2-enamide]: the IC50 in assay [1] was found to be 12 nM. Still for that read-out and setting: as for `CC1Cc2cc(C(=O)c3cc(F)c(NC(=O)/C=C/CN[C@H]4CCOC4)c(F)c3)n3cccc(c23)-c2c(C(F)(F)F)cc3c(ncn3C)c2O1` (single isomer, unassigned) [Example 271], the figure is 13.6 nM; as for `Cc1nc2c3c(c(C(F)(F)F)cc2n1C)-c1cccn2c(C(=O)c4cc(F)c(NC(=O)/C=C/CNC5(C)COC5)c(F)c4)cc(c12)CC(C)O3` (single isomer, unassigned) [Example 272, mono((E)-2-(3,5-difluoro-4-(4-((3-methyloxetan-3-yl)ammonio)but-2-en-amido)benzoyl)-9,10,13-trimethyl-7-(trifluoro-methyl)-13,14-dihydro-9H-imidazo[4″,5″:5′,6′]-benzo[1′,2′:2,3]oxocino-[4,5,6-hi]indolizin-11-ium) mono(2,2,2-trifluoroacetate)], 14.9 nM. For `COCCn1c(COC)[n+]([O-])c2c3c(c(OC)cc21)-c1cccn2c(C(=O)c4cc(F)c(NC(=O)/C=C/CNC5(C)CC5)c(F)c4)cc(c12)CCN3C` [Example 243, (E)-2-(3,5-difluoro-4-(4-((1-methylcyclopropyl)-amino)but-2-enamido)-benzoyl)-7-methoxy-9-(2-methoxyethyl)-10-(methoxymethyl)-12-methyl-9,12,13,14-tetra-hydroimidazo[4″,5″:5′,6′]-benzo[1′,2′:2,3]azocino-[4,5,6-hi]indolizine 11-oxide], the IC50 was 91.8 nM with MIA PaCa-2 cells (setting [3]) and 83.2 nM in assay [2] (Table 2-1).

With `COc1cc2c(nc(C)n2C)c2c1-c1cccn3c(C(=O)c4cc(F)c(NC(=O)/C=C/CNC5(C)CCCC5)c(F)c4)cc(c13)CCN2C` [Example 245, (E)-N-(2,6-difluoro-4-(7-methoxy-9,10,12-trimeth-yl-9,12,13,14-tetrahydro-imidazo[4″,5″:5′,6′]benzo-[1′,2′:2,3]azocino[4,5,6-hi]indolizine-2-carbonyl)-phenyl)-4-((1-methyl-cyclopentyl)amino)but-2-enamide], the half-inhibitory concentration (IC50) with MIA PaCa-2 cells (setting [3]) stood at 25.4 nM; in assay [2] (Table 2-1), 33.1 nM. The matching figures for `COCCn1c(C)nc2c3c(c(OC)cc21)-c1cccn2c(C(=O)c4cc(F)c(NC(=O)/C=C/CNC5(C)CCCC5)c(F)c4)cc(c12)CCO3` [Example 246, (E)-N-(2,6-difluoro-4-(7-methoxy-9-(2-methoxyethyl)-10-methyl-13,14-dihydro-9H-imidazo[4″,5″:5′,6′]benzo[1′,2′:2,3]oxocino[4,5,6-hi]indolizine-2-carbonyl)phenyl)-4-((1-methylcyclopentyl)amino)but-2-enamide]: 17.2 nM and 13.6 nM. The matching figures for `CN1CCc2cc(C(=O)c3cc(F)c(NC(=O)/C=C/CNC4(C)CSC4)c(F)c3)n3cccc(c23)-c2c(C(F)(F)F)cc3c(ncn3C)c21` [Example 249]: 28.6 nM and 27.5 nM. Regarding “(E)-N-(2,6-difluoro-4-(10-(methoxymethyl)-9,13-dimethyl-12-oxo-7-(trifluoromethyl)-9,12,13,14-tetrahydroimidazo[4″,5″:3′,4′]benzo[1′,2′:6,7]azocino[5,4,3-hi]indolizine-2-carbonyl)phenyl)-4-((3-methyloxetan-3-yl)amino)but-2-enamide [Example 152]”, the IC50 worked out at 927 nM in the assay on MIA PaCa-2 cells (Table 3-1) and 89.3 nM in assay [2] (Table 2-1). On to “(E)-N-(2,6-difluoro-4-((S)-6,8,9,12-tetramethyl-12,13-dihydro-8H-imidazo[4″,5″:3′,4′]benzo[1′,2′:7,8][1,4]oxazocino[6,5,4-hi]indole-2-carbonyl)pheny 1)-4-(((1,4r)-4-methoxycyclohexyl)amino)but-2-enamide [Example 20]”, for which the values for the 50% inhibitory concentration (IC50) (with MIA PaCa-2 cells (Table 3); in assay [2] (Table 2)) were 49 nM and 24 nM, respectively.
